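GI50 = concentration required for 50% inhibition of growth. TGI denotes the concentration required for complete inhibition of growth.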
Columns and labels:
Experiment in all cases: growth of human tumour cells (NCI), 384-well format
[1] = system: A498 renal
[2] = system: A549 NSCLC
[3] = system: ACHN renal
[4] = system: BT-549 breast
[5] = system: CAKI-1 renal
[6] = system: COLO 205 colon
[7] = system: DU-145 prostate
[8] = system: EKVX NSCLC
[9] = system: HCC-2998 colon
[10] = system: HCT-116 colon
[11] = system: HCT-15 colon
[12] = system: HL-60(TB) leukemia
[13] = system: HOP-62 NSCLC
[14] = system: HOP-92 NSCLC
[15] = system: HS 578T breast
[16] = system: HT29 colon
[17] = system: IGROV1 ovarian
[18] = system: KM12 colon
[19] = system: LOX IMVI melanoma
[20] = system: M14 melanoma
[21] = system: MALME-3M melanoma
[22] = system: MCF7 breast
[23] = system: MDA-MB-231 breast
[24] = system: MDA-MB-435 melanoma
[25] = system: MDA-MB-468 breast
[26] = system: MOLT-4 leukemia
[27] = system: NCI-H226 lung
[28] = system: NCI-H23 lung
[29] = system: NCI-H322M lung
[30] = system: NCI-H460 NSCLC
[31] = system: NCI-H522 lung
[32] = system: NCI/ADR-RES ovarian
[33] = system: OVCAR-3 ovarian
[34] = system: OVCAR-4 ovarian
[35] = system: OVCAR-5 ovarian
[36] = system: OVCAR-8 ovarian
[37] = system: PC-3 prostate
[38] = system: RPMI-8226 leukemia
[39] = system: RXF 393 renal
[40] = system: SF-268 CNS
[41] = system: SF-295 CNS
[42] = system: SF-539 CNS
[43] = system: SK-MEL-28 melanoma
[44] = system: SK-MEL-5 melanoma
[45] = system: SK-OV-3 ovarian
[46] = system: SN12C renal
[47] = system: SNB-19 CNS
[48] = system: SNB-75 CNS
[49] = system: SR leukemia
[50] = system: T-47D breast
[51] = system: TK-10 renal
[52] = system: U251 glioblastoma
[53] = system: UACC-257 melanoma
[54] = system: UACC-62 melanoma

Structure (SMILES): CC(C)C[C@H](NC(=O)[C@@H](NC(=O)c1cccc(-c2ccccc2)n1)[C@@H](C)O)B(O)O
- GI50 [1]: 0.312 µM
- TGI [1]: 1.85 µM
- GI50 [2]: 1.08 µM
- TGI [2]: 16.3 µM
- GI50 [3]: 0.239 µM
- TGI [3]: 0.957 µM
- GI50 [4]: 0.139 µM
- TGI [4]: 0.288 µM
- GI50 [5]: 0.492 µM
- TGI [5]: 19 µM
- GI50 [6]: 0.442 µM
- TGI [6]: > 100 µM
- GI50 [7]: 0.432 µM
- TGI [7]: 1.76 µM
- GI50 [8]: 0.523 µM
- TGI [8]: 2.85 µM
- GI50 [9]: 0.141 µM
- TGI [9]: 0.371 µM
- GI50 [10]: 0.16 µM
- TGI [10]: 0.347 µM
- GI50 [11]: 0.556 µM
- TGI [11]: 1.88 µM
- GI50 [12]: 0.0776 µM
- TGI [12]: 0.198 µM
- GI50 [13]: 0.237 µM
- TGI [13]: 0.765 µM
- GI50 [14]: 0.432 µM
- TGI [14]: 1.89 µM
- GI50 [15]: 0.143 µM
- TGI [15]: 0.294 µM
- GI50 [16]: 0.127 µM
- TGI [16]: 0.274 µM
- GI50 [17]: 0.56 µM
- TGI [17]: 2.12 µM
- GI50 [18]: 0.346 µM
- TGI [18]: 1.28 µM
- GI50 [19]: 0.216 µM
- TGI [19]: 0.507 µM
- GI50 [20]: 0.163 µM
- TGI [20]: 0.305 µM
- GI50 [21]: 0.104 µM
- TGI [21]: 0.239 µM
- GI50 [22]: 0.129 µM
- TGI [22]: 10.7 µM
- GI50 [23]: 0.327 µM
- TGI [23]: 1.28 µM
- GI50 [24]: 0.163 µM
- TGI [24]: 0.305 µM
- GI50 [25]: 0.168 µM
- TGI [25]: 0.405 µM
- GI50 [26]: 0.0218 µM
- TGI [26]: 0.0564 µM
- GI50 [27]: 0.0114 µM
- TGI [27]: 0.103 µM
- GI50 [28]: 0.292 µM
- TGI [28]: 1.19 µM
- GI50 [29]: 2.03 µM
- TGI [29]: 11.8 µM
- GI50 [30]: 0.426 µM
- TGI [30]: 1.55 µM
- GI50 [31]: 0.122 µM
- TGI [31]: 0.249 µM
- GI50 [32]: 11.1 µM
- TGI [32]: 24.5 µM
- GI50 [33]: 0.103 µM
- TGI [33]: 0.228 µM
- GI50 [34]: 0.21 µM
- TGI [34]: 0.569 µM
- GI50 [35]: 0.26 µM
- TGI [35]: 0.94 µM
- GI50 [36]: 0.374 µM
- TGI [36]: 1.52 µM
- GI50 [37]: 0.257 µM
- TGI [37]: 0.685 µM
- GI50 [38]: 0.0112 µM
- TGI [38]: 0.026 µM
- GI50 [39]: 0.147 µM
- TGI [39]: 0.297 µM
- GI50 [40]: 0.266 µM
- TGI [40]: 0.787 µM
- GI50 [41]: 0.374 µM
- TGI [41]: 1.54 µM
- GI50 [42]: 0.165 µM
- TGI [42]: 0.308 µM
- GI50 [43]: 0.0891 µM
- TGI [43]: 0.24 µM
- GI50 [44]: 0.129 µM
- TGI [44]: 0.285 µM
- GI50 [45]: 0.56 µM
- TGI [45]: 11 µM
- GI50 [46]: 0.123 µM
- TGI [46]: 0.422 µM
- GI50 [47]: 0.234 µM
- TGI [47]: 0.87 µM
- GI50 [48]: 0.297 µM
- TGI [48]: 1.26 µM
- TGI [49]: 0.221 µM
- GI50 [50]: 0.224 µM
- TGI [50]: 0.783 µM
- GI50 [51]: 0.157 µM
- TGI [51]: 0.418 µM
- GI50 [52]: 0.42 µM
- TGI [52]: 1.94 µM
- GI50 [53]: 0.116 µM
- TGI [53]: 0.245 µM
- GI50 [54]: 0.291 µM
- TGI [54]: 1.16 µM

Source: PubChem BioAssay (NCI)
